Literature values in US8313936B2, “Nucleic acids and polypeptides involved in the production of cryptophycin” (priority 2006, dated 2012).

Conditions: assay not specified; U.S. Publication No. 20020065261

## COc1ccc(C[C@H]2NC(=O)/C=C/C[C@@H]([C@H](C)[C@H]3O[C@@H]3c3ccccc3)OC(=O)[C@H](CC(C)C)OC(=O)[C@H](C)CNC2=O)cc1Cl [Cryptophycin 1]
  activity relative to other cryptophycins: the most active natural compound
